Reference: the supplement of paper PMC4862054

Columns and labels:
Conditions in all cases: incubation time: 72 h
DU-4475 [1] = experiment: normalised viability (% of control), CellTiter-Blue; higher = more viable cells (about 100 = DMSO control)
Summary of the method: (§1)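 Breast cancer cell lines in 20 µl suspension were seeded onto 384-well plates pre-loaded with compound dissolved in 5 µl medium, then incubated 72 h. CellTiter-Blue reagent (2.5 µl) was added for 2 h at 37 °C and fluorescence read at 560/590 nm. Each plate was normalised to vehicle (100) and a positive kill control (0), with Z'-factor quality control. The value is normalised viability at one listed concentration of the series.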

Hs578T [2] = experiment: as above
Summary of the method: as §1

MFM-223 [3] = experiment: as above
Summary of the method: as §1

HCC1937 [4] = experiment: as above
Summary of the method: as §1

MDA-MB-231 [5] = experiment: as above
Summary of the method: as §1

CAL-120 [6] = experiment: as above
Summary of the method: as §1

CAL-85-1 [7] = experiment: as above
Summary of the method: as §1

CAL-51 [8] = experiment: as above
Summary of the method: as §1

MDA-MB-468 [9] = experiment: as above
Summary of the method: as §1

HDQ-P1 [10] = experiment: drug sensitivity score (DSS), CellTiter-Glo (DSS (AUC-based score)); higher = stronger drug effect (viability inhibition or cytotoxicity); extreme values may be limits of the assay
Summary of the method: (§2)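 Compound was dispensed into 384-well plates at 5 concentrations in 10-fold steps spanning a 10,000-fold range chosen for each compound, and 20 µl of breast cancer cell suspension was added before 72 h of incubation. CellTox Green fluorescence was read at 485/520 nm, followed by CellTiter-Glo luminescence after 10 min at room temperature. Values on each plate were normalised to 0.1 % DMSO and a positive kill control. The drug sensitivity score came from the area under the fitted dose-response curve.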

MDA-MB-453 [11] = experiment: as above
Summary of the method: as §2

CAL-51 [12] = experiment: as above
Summary of the method: as §2

SK-BR-3 [13] = experiment: as above
Summary of the method: as §2

DU-4475 [14] = experiment: normalised viability (% of control), CellTiter-Blue; higher = more viable cells (about 100 = DMSO control); remark: listed apart in the source
Summary of the method: as §1

BT-474 = experiment: as above
Summary of the method: as §1

HCC1143 = experiment: as above
Summary of the method: as §1

HDQ-P1 [15] = experiment: as above
Summary of the method: as §1

Hs578T [16] = experiment: as above; remark: listed apart in the source
Summary of the method: as §1

BT-549 = experiment: as above
Summary of the method: as §1

HCC1599 = experiment: as above
Summary of the method: as §1

CAL-148 = experiment: as above
Summary of the method: as §1

MFM-223 [17] = experiment: as above; remark: listed apart in the source
Summary of the method: as §1

MDA-MB-453 [18] = experiment: as above
Summary of the method: as §1

MDA-MB-436 = experiment: as above
Summary of the method: as §1

HCC1937 [19] = experiment: as above; remark: listed apart in the source
Summary of the method: as §1

MDA-MB-231 [20] = experiment: as above; remark: listed apart in the source
Summary of the method: as §1

CAL-120 [21] = experiment: as above; remark: listed apart in the source
Summary of the method: as §1

CAL-85-1 [22] = experiment: as above; remark: listed apart in the source
Summary of the method: as §1

CAL-51 [23] = experiment: as above; remark: listed apart in the source
Summary of the method: as §1

MDA-MB-468 [24] = experiment: as above; remark: listed apart in the source
Summary of the method: as §1

SK-BR-3 [25] = experiment: as above
Summary of the method: as §1

CCCCCCCCc1ccc(CCC(N)(CO)CO)cc1 [Fingolimod]
normalised viability (DU-4475 [1]; 10 nM): 113%
normalised viability (Hs578T [2]; 100 nM): 97.1%
normalised viability (MFM-223 [3]; 100 nM): 98.6%
normalised viability (HCC1937 [4]; 100 nM): 99%
normalised viability (MDA-MB-231 [5]; 100 nM): 89.3%
normalised viability (CAL-120 [6]; 100 nM): 90.7%
normalised viability (CAL-85-1 [7]; 10 nM): 103%
normalised viability (CAL-51 [8]; 10 nM): 117%
normalised viability (MDA-MB-468 [9]; 100 nM): 101%
drug sensitivity score (HDQ-P1 [10]): 2.05
drug sensitivity score (MDA-MB-453 [11]): 5.2
drug sensitivity score (CAL-51 [12]): 4.51
drug sensitivity score (SK-BR-3 [13]): 5.36
normalised viability (DU-4475 [14]; 30 nM): 119%
normalised viability (BT-474; 1000 nM): 113%
normalised viability (HCC1143; 1000 nM): 106%
normalised viability (HDQ-P1 [15]; 30 nM): 126%
normalised viability (Hs578T [16]; 1000 nM): 100%
normalised viability (BT-549; 1000 nM): 88.7%
normalised viability (HCC1599; 1000 nM): 113%
normalised viability (CAL-148; 30 nM): 84%
normalised viability (MFM-223 [17]; 1000 nM): 106%
normalised viability (MDA-MB-453 [18]; 30 nM): 100%
normalised viability (MDA-MB-436; 1000 nM): 81.4%
normalised viability (HCC1937 [19]; 1000 nM): 95.4%
normalised viability (MDA-MB-231 [20]; 1000 nM): 86.8%
normalised viability (CAL-120 [21]; 1000 nM): 88.5%
normalised viability (CAL-85-1 [22]; 30 nM): 87.1%
normalised viability (CAL-51 [23]; 30 nM): 111%
normalised viability (MDA-MB-468 [24]; 1000 nM): 105%
normalised viability (SK-BR-3 [25]; 1000 nM): 108%

C/C(=C\c1csc(C)n1)[C@@H]1C[C@@H]2O[C@]2(C)CCC[C@H](C)[C@H](O)[C@@H](C)C(=O)C(C)(C)[C@@H](O)CC(=O)O1 [Patupilone]
normalised viability (DU-4475 [1]; 1 nM): 95.4%
normalised viability (Hs578T [2]; 10 nM): 36.7%
normalised viability (MFM-223 [3]; 10 nM): 81.3%
normalised viability (HCC1937 [4]; 10 nM): 25.5%
normalised viability (MDA-MB-231 [5]; 10 nM): 22.7%
normalised viability (CAL-120 [6]; 10 nM): 51.6%
normalised viability (CAL-85-1 [7]; 1 nM): 73.7%
normalised viability (CAL-51 [8]; 1 nM): 104%
normalised viability (MDA-MB-468 [9]; 10 nM): 54.4%
drug sensitivity score (HDQ-P1 [10]): 4.83
drug sensitivity score (MDA-MB-453 [11]): 5.87
drug sensitivity score (CAL-51 [12]): 19.1
drug sensitivity score (SK-BR-3 [13]): 15.1
normalised viability (DU-4475 [14]; 3 nM): 89.2%
normalised viability (BT-474; 100 nM): 24.8%
normalised viability (HCC1143; 100 nM): 34.3%
normalised viability (HDQ-P1 [15]; 3 nM): 107%
normalised viability (Hs578T [16]; 100 nM): 14.1%
normalised viability (BT-549; 100 nM): 27.2%
normalised viability (HCC1599; 100 nM): 92.2%
normalised viability (CAL-148; 3 nM): 57.9%
normalised viability (MFM-223 [17]; 100 nM): 45.9%
normalised viability (MDA-MB-453 [18]; 3 nM): 63.5%
normalised viability (MDA-MB-436; 100 nM): 39.5%
normalised viability (HCC1937 [19]; 100 nM): 10.9%
normalised viability (MDA-MB-231 [20]; 100 nM): 20.1%
normalised viability (CAL-120 [21]; 100 nM): 23.2%
normalised viability (CAL-85-1 [22]; 3 nM): 49.4%
normalised viability (CAL-51 [23]; 3 nM): 103%
normalised viability (MDA-MB-468 [24]; 100 nM): 49.5%
normalised viability (SK-BR-3 [25]; 100 nM): 15.8%

CNNCc1ccc(C(=O)NC(C)C)cc1 [Procarbazine]
normalised viability (DU-4475 [1]; 10 nM): 112%
normalised viability (Hs578T [2]; 100 nM): 104%
normalised viability (MFM-223 [3]; 100 nM): 92.8%
normalised viability (HCC1937 [4]; 100 nM): 85.3%
normalised viability (MDA-MB-231 [5]; 100 nM): 105%
normalised viability (CAL-120 [6]; 100 nM): 106%
normalised viability (CAL-85-1 [7]; 10 nM): 97.8%
normalised viability (CAL-51 [8]; 10 nM): 109%
normalised viability (MDA-MB-468 [9]; 100 nM): 102%
drug sensitivity score (HDQ-P1 [10]): 0
drug sensitivity score (MDA-MB-453 [11]): 0
drug sensitivity score (CAL-51 [12]): 0
drug sensitivity score (SK-BR-3 [13]): 0
normalised viability (DU-4475 [14]; 30 nM): 107%
normalised viability (BT-474; 1000 nM): 114%
normalised viability (HCC1143; 1000 nM): 105%
normalised viability (HDQ-P1 [15]; 30 nM): 103%
normalised viability (Hs578T [16]; 1000 nM): 103%
normalised viability (BT-549; 1000 nM): 98.8%
normalised viability (HCC1599; 1000 nM): 88.9%
normalised viability (CAL-148; 30 nM): 101%
normalised viability (MFM-223 [17]; 1000 nM): 95.5%
normalised viability (MDA-MB-453 [18]; 30 nM): 114%
normalised viability (MDA-MB-436; 1000 nM): 88.8%
normalised viability (HCC1937 [19]; 1000 nM): 77.8%
normalised viability (MDA-MB-231 [20]; 1000 nM): 119%
normalised viability (CAL-120 [21]; 1000 nM): 99%
normalised viability (CAL-85-1 [22]; 30 nM): 87.4%
normalised viability (CAL-51 [23]; 30 nM): 106%
normalised viability (MDA-MB-468 [24]; 1000 nM): 124%
normalised viability (SK-BR-3 [25]; 1000 nM): 113%
